Reference: patent US20240130675A1, “Methods for Treating Autism Spectrum Disorder” (The General Hospital Corporation, priority 2021, published 2024)

System: youth with ASD
Experiment: Treatment response based on baseline PgACC glutamate activity (high vs normal; treatment group-by-glutamate-by-visit interaction)
Format: in vivo, human
Settings: for Mean # of AEs / # of Participants with AEs / Treatment-Limiting AEs: TOLERABILITY
Protocol: The primary outcome was analyzed using Pearson's chi-square test at the a priori defined significance level of 0.05. Secondary measures of efficacy were analyzed using mixed-effects regression models with robust standard errors to account for the repeated measures on each subject. The primary and secondary measures were compared between memantine versus placebo as well as between those with high versus normal baseline glutamate activity levels. Participants were categorized as having high versus normal glutamate activity levels at baseline using z-scores. The population mean and SD for z-score calculations were derived from healthy control glutamate activity levels (baseline and endpoint). Glutamate activity levels with z-scores≥1 were categorized as high glutamate activity levels, those with z-scores<1 and >−1 were categorized as normal glutamate activity levels and those with z-scores≤−1 were categorized as low glutamate activity levels. Changes in PgACC glutamate activity levels within groups were tested using paired t-tests and changes between groups were tested using two-sample t-tests. We also performed ROC curve analyses to determine the predictive utility of baseline PgACC glutamate activity levels in identifying treatment responders within the memantine and placebo groups. All analyses apart from the analysis of the primary outcome were considered exploratory. Analyses were performed using a modified intent-to-treat analysis set which included all randomized patients who were regarded exposed to study medication (completed at least two weeks of treatment) and had at least one follow-up assessment.
The mixed-effects regression models used to analyze the secondary measures of efficacy predicted the outcome measure from treatment group (memantine versus placebo), study visit (continuous), and the treatment group-by-study visit interaction, which is our test of efficacy. To examine the effect of baseline PgACC glutamate activity level on the response to treatment, we predicted outcomes measures from treatment group, study visit (continuous), PgACC glutamate activity level (continuous), treatment group-by-study visit interaction, glutamate activity level-by-study visit interaction, treatment group-by-glutamate activity level interaction, and treatment group-by-glutamate activity level-by-study visit interaction. All mixed-effects regression models had random intercepts by subject ID, used robust standard errors to account for the repeated measures on each subject, and used an independent covariance structure for the random effects. […] All missing data were assumed to be missing at random.
Effect sizes are presented as standardized mean differences (SMD) for continuous outcomes and odds ratios (OR) for dichotomous outcomes. The SMDs for the difference of the changes in scores over time between memantine and placebo and between high glutamate and normal glutamate were calculated as Cohen's d using the following calculations: the difference in the change scores between the two groups divided by the pooled standard deviation. The SMDs for changes in scores within groups were calculated as Cohen's d using the following calculation: difference in score from baseline to endpoint divided by the pooled standard deviation. For comparisons of memantine versus placebo and high glutamate versus normal glutamate, positive SMDs and ORs>1 indicate better improvement in the memantine group and high glutamate group, respectively. For comparisons of ASD versus healthy controls, positive SMDs indicate lower glutamate activity levels in the ASD group. As defined by Cohen (Statistical Power Analysis for the Behavioral Sciences. 2nd ed. Hillsdale, NJ: Erlbaum. 1988), a SMD=0.2 is interpreted as a small effect size, SMD=0.5 as medium, and SMD=0.8 as large. We considered ORs>2 to be clinically meaningful.

[1] = HIGH glutamate activity levels, MEM N = 10
[2] = NORMAL glutamate activity levels, MEM N = 5
[3] = NORMAL glutamate activity levels, MEM N = 8

CC12CC3CC(C)(C1)CC(N)(C3)C2 [MEM, memantine]
ABC-Social Withdrawal MD [1]: −8.5 ± 7.6 | ADHD-RS MD [1]: −9.9 ± 11.7 | CASI-ANX MD [1]: −10.3 ± 5.1 | CDRS-R MD [1]: −9.8 ± 11.2 | CGI-1≤2 [1]: 9 (90) N (%) | CY-BOCS-PDD MD [1]: −0.5 ± 1.6 | GAF MD [1]: 9.1 ± 5.4 | SRS-Autistic Mannerisms MD [1]: −10.3 ± 5.3 | SRS-SCI MD [1]: −39.8 ± 21.1 | SRS-Social Awareness MD [1]: −5.0 ± 4.2 | SRS-Social Cognition MD [1]: −8.1 ± 5.8 | SRS-Social Communication MD [1]: −17.9 ± 7.7 | SRS-Social Motivation MD [1]: −8.8 ± 5.3 | SRS-Total MD [1]: −50.1 ± 25.7 | ≥25% ↓↓SRS [1]: 9 N | ≥25% ↓↓SRS + CGI-I ≤ 2 [1]: 8 (80) N (%) | ABC-Social Withdrawal MD [2]: −3.6 ± 5.6 | ADHD-RS MD [2]: −8.2 ± 7.4 | CASI-ANX MD [2]: −2.4 ± 5.2 | CDRS-R MD [2]: −8.0 ± 11.8 | CGI-≤2 [2]: 3 (60) N (%) | CY-BOCS-PDD MD [2]: −2.0 ± 2.8 | GAF MD [2]: 4.6 ± 4.3 | SRS-Autistic Mannerisms MD [2]: −1.8 ± 5.1 | SRS-SCI MD [2]: −9.2 ± 5.3 | SRS-Social Awareness MD [2]: −0.8 ± 1.8 | SRS-Social Cognition MD [2]: −2.0 ± 2.6 | SRS-Social Communication MD [2]: −2.8 ± 2.7 | SRS-Social Motivation MD [2]: −3.0 ± 4.0 | SRS-Total MD [2]: −10.6 ± 10.6 | ≥25% WISRS±CGI-1≤2 [2]: 0 (0) N (%) | ≥25% WLSRS [2]: 0 (0) N (%) | Mean # of AEs (HIGH glutamate activity levels, MEM N = 7): 2.4 ± 1.3 | # of Participants with AEs [1]: 7 (70) N (%) | Treatment-Limiting AEs [1]: 0 (0) N (%) | Mean # of AEs (NORMAL glutamate activity levels, MEM N = 6): 2.8 ± 1.0 | # of Participants with AEs [3]: 4 (50) N (%) | Treatment-Limiting AEs [3]: 2 (25) N (%) | Association of higher baseline PgACC glutamate activity levels with change scores (SRS Total, SRS-SCI, ABC-Social Withdrawal) (memantine group): greater change scores
